13 molecules from ChEMBL document CHEMBL1201862, “PubChem BioAssay data set” (2004) can be followed below.

Common to all, as to assay: growth of human tumour cells (NCI), 48 h
In assay [1] the test system is A549.
The subject of assay [2] is CCRF-CEM.
For assay [3], the system named is COLO 205.
The subject of assay [4] is DMS-114.
In assay [5] the test system is HOP-92.
Assay [6] has as its system LXFL 529.
For assay [7], the system named is NCI-H23.
Assay [8] has as its system NCI-H522.
Assay [9] relates to OVCAR-3.
The test system of assay [10] is OVCAR-4.
Assay [11] relates to SF-268.
Assay [12] has as its system SF-295.
The test system of assay [13] is SK-MEL-2.
The subject of assay [14] is SK-OV-3.
Assay [15] relates to SN12C.
Assay [16] concerns SNB-19.
For assay [17], the system named is SW-620.
The test system of assay [18] is A498.

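Exposure lasted 48 hours, with cells grown in 96-well plates and compounds tested at five concentrations. GI50 is the concentration that inhibits growth by half.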 The source made the active and inactive calls. No stated cut-off is given here; in the data, active = GI50 up to about 1.1 µM and inactive = higher.

For `CC(C)N1CCOC(c2ccc(O)c(O)c2)C1` (stereo not given), the GI50 in [1], in assay [2], in assay [3], in assay [4], in assay [5] and in assay [6] was > 100 µM (inactive) throughout. The GI50 in assay [7], in assay [8], in assay [9], in assay [10], in assay [11] and in assay [12] was > 100 µM (inactive) in each case. Moreover, the GI50 in assay [13], in assay [14], in [15], in [16] and in [17] was > 100 µM (inactive) in each case.
Regarding `CC(C)(C)[C@H]1CO[C@]2(c3ccccc3)[C@@H]3C[C@@H]3C(=O)N12`, the GI50 was > 100 µM (inactive) in assay [1]; > 10 µM (inactive) in assay [2]; > 100 µM (inactive) in assay [3]; > 100 µM (inactive) in assay [4]; > 100 µM (inactive) in [5]; > 100 µM (inactive) in assay [6]. The GI50 in assay [7], in assay [8], in [9], in assay [10], in [11] and in assay [12] was > 100 µM (inactive) each time. Besides, the GI50 in assay [13], in assay [14], in assay [15], in assay [16] and in assay [17] was > 100 µM (inactive) throughout.
On to `CC1CCCP(=O)(c2ccccc2)CCC1` (stereo not given), for which the GI50 in [18], in [1], in [2], in [3], in assay [4] and in [6] was > 100 µM (inactive) each time. For the same molecule, the GI50 in assay [7], in assay [9], in [10], in [11], in assay [12] and in assay [13] was > 100 µM (inactive) each time. Also, the GI50 in [14], in assay [15], in assay [16] and in [17] was > 100 µM (inactive) throughout.
As for `NC(=S)N/N=C1/C(=O)N(c2ccc(Cl)cc2Cl)C(=O)C(=O)C1c1nc2ccccc2s1` (stereo not given), the GI50 in assay [3], in assay [4], in assay [5], in assay [6], in assay [7] and in assay [8] was > 100 µM (inactive) each time. In addition, the GI50 in assay [9], in assay [10], in assay [11], in assay [12], in assay [13] and in assay [14] was > 100 µM (inactive) in each case. Also, the GI50 in assay [15], in [16] and in assay [17] was > 100 µM (inactive) each time.
Regarding `O=C1NC(=O)C2C1c1[nH]c3ccccc3c1C1CCCC12` (stereo not given), the GI50 is 4.76 µM (inactive) in assay [18]; 0.916 µM (active) in assay [1]; 1.86 µM (inactive) in assay [2]; 4.23 µM (inactive) in [3]; 1.35 µM (inactive) in [4]; 6.37 µM (inactive) in [6]. The GI50 was 3.79 µM (inactive) in assay [7]; 1.83 µM (inactive) in [9]; 25.6 µM (inactive) in assay [10]; 4.02 µM (inactive) in assay [11]; 1.29 µM (inactive) in assay [12]; 4.49 µM (inactive) in assay [14]. Also, the GI50 in assay [15] was 6.87 µM (inactive); in assay [16], 5.07 µM (inactive); in assay [17], 0.951 µM (active).
For `CN(C(=O)C12C3C4C1C1C2C3C41I)C(C)(C)C` (stereo not given), the GI50 in assay [18] was 53.8 µM (inactive); in assay [1], > 100 µM (inactive); in assay [3] it was > 87.1 µM (inactive); in assay [4] it was > 59 µM (inactive); in [6] it was > 87.1 µM (inactive); in assay [7], > 96.6 µM (inactive). In addition, the GI50 is 48 µM (inactive) in [8]; 70.1 µM (inactive) in assay [9]; > 100 µM (inactive) in assay [10]; > 100 µM (inactive) in assay [11]; > 100 µM (inactive) in assay [12]; > 100 µM (inactive) in [13]. The GI50 in [14], in assay [15], in [16] and in assay [17] was > 100 µM (inactive) in each case.
As for `N#CC(C(=O)/C(=N/NC(=O)c1ccccc1O)C(C#N)c1ccccc1)c1ccccc1` (stereo not given), the GI50 in assay [18], in assay [1], in [3], in assay [4], in assay [5] and in assay [6] was > 100 µM (inactive) throughout. In addition, the GI50 in assay [7], in assay [9], in [10], in [11], in assay [12] and in assay [13] was > 100 µM (inactive) each time. In addition, the GI50 in [14] and in [15] was > 100 µM (inactive) throughout.
With `Nc1ccc2ncc(NCc3ccc(F)cc3)nc2c1`, the GI50 is > 100 µM (inactive) in [1]; > 100 µM (inactive) in [2]; > 100 µM (inactive) in [3]; 49 µM (inactive) in assay [4]; 53.1 µM (inactive) in assay [5]; > 100 µM (inactive) in assay [6]. Besides, the GI50 in assay [7] was > 100 µM (inactive); in [8], 83.2 µM (inactive); in assay [9], 38.9 µM (inactive); in assay [10], 92.3 µM (inactive); in assay [11], 48.2 µM (inactive); in assay [12] it was 56.2 µM (inactive). The GI50 in [13] was > 100 µM (inactive); in assay [14] it was 85.9 µM (inactive); in [15], 87.5 µM (inactive); in assay [16] it was > 100 µM (inactive); in assay [17], > 100 µM (inactive).
With `CCOC(=O)C1(C(=O)OCC)C(C(C)(C)C)=C(C)c2ccccc21`, the GI50 in assay [1] is 18.1 µM (inactive); in [2] it was 13.1 µM (inactive); in [3], 13.3 µM (inactive); in assay [4] it was 11.5 µM (inactive); in [5] it was 3.4 µM (inactive); in assay [6] it was 11.6 µM (inactive). For the same molecule, the GI50 in assay [7] was 10.2 µM (inactive); in [8], 10.1 µM (inactive); in assay [9] it was 11.9 µM (inactive); in assay [10], 14.9 µM (inactive); in assay [11], 16.8 µM (inactive); in assay [12] it was 11.7 µM (inactive). Also, the GI50 in [13] was 18.5 µM (inactive); in [14] it was 24.2 µM (inactive); in assay [15], 15.3 µM (inactive); in [16], 19.9 µM (inactive); in [17], 15.3 µM (inactive).
As for `CN(C)CC1CCC(CN(C)C)C1=NO` (stereo not given), the GI50 in [1], in [2], in assay [3], in assay [4], in [5] and in assay [6] was > 100 µM (inactive) in each case. The GI50 in [8] is > 100 µM (inactive); in assay [9], > 100 µM (inactive); in [10], > 100 µM (inactive); in assay [11], > 100 µM (inactive); in assay [12] it was > 10 µM (inactive); in assay [15] it was > 100 µM (inactive). Further, in [17], the GI50 was > 100 µM (inactive).
For the molecule `NC(=S)N/N=C/C(=C/Nc1ccccc1)[N+](=O)[O-]`, the GI50 in [1] was > 100 µM (inactive); in assay [2], > 100 µM (inactive); in assay [3], > 100 µM (inactive); in [4], 15.7 µM (inactive); in assay [5], > 100 µM (inactive); in assay [6], > 100 µM (inactive). The GI50 in assay [7], in [8], in assay [9], in assay [10], in [11] and in assay [12] was > 100 µM (inactive) each time. For the same molecule, the GI50 in [13], in assay [14], in assay [15], in [16] and in [17] was > 100 µM (inactive) throughout.
For the molecule `CC(C)NCCCC(C)Nc1ccnc2ccc3nn(C)nc3c12` (stereo not given), the GI50 in assay [18] was > 100 µM (inactive); in assay [1] it was 62.1 µM (inactive); in [2], 41.9 µM (inactive); in assay [3] it was 28.3 µM (inactive); in assay [4] it was 61.7 µM (inactive); in assay [6], 57.1 µM (inactive). Also, the GI50 in assay [7] was > 100 µM (inactive); in [8] it was > 100 µM (inactive); in assay [11], 96.8 µM (inactive); in [12], 34.6 µM (inactive); in assay [14], > 100 µM (inactive); in [15], 61.8 µM (inactive). Moreover, the GI50 in assay [16] was > 100 µM (inactive); in assay [17] it was 38.5 µM (inactive).
Turning to `COc1cc2c(cn1)[nH]c1ccccc12`, the GI50 was > 100 µM (inactive) in [1]; > 100 µM (inactive) in assay [2]; > 100 µM (inactive) in [3]; 81.5 µM (inactive) in assay [4]; > 100 µM (inactive) in assay [5]; 72.3 µM (inactive) in assay [6]. The GI50 is > 100 µM (inactive) in assay [7]; 61.2 µM (inactive) in assay [8]; > 100 µM (inactive) in assay [9]; > 100 µM (inactive) in [10]; 88.1 µM (inactive) in [11]; > 100 µM (inactive) in assay [12]. For the same molecule, the GI50 in assay [13] is > 100 µM (inactive); in assay [14] it was > 100 µM (inactive); in [15], > 100 µM (inactive); in assay [16] it was > 100 µM (inactive); in [17], 46.3 µM (inactive).
